The molecules below were run against T1, hROMK (hKir1.1) (Homo sapiens, UniProt P48048) (assay: Thallium Flux Assay (ROMK channel functional thallium flux, FLIPR-Tetra)). Conditions: HEK293 cells stably expressing hROMK (hKir1.1); 30 min compound incubation.
T1 construct: expressed in transfected cells
T1 sequence (P48048 1-391): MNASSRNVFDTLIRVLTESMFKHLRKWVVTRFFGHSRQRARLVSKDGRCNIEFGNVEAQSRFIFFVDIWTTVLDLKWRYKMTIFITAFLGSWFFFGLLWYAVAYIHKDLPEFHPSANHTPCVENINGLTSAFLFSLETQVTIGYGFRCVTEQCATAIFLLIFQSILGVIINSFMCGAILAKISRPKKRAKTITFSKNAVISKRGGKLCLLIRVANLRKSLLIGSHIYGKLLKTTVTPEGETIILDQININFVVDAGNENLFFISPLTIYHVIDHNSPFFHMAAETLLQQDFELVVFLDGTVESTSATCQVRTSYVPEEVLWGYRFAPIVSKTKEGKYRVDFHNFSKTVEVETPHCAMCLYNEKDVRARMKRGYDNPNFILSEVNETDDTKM
Type: cell-based
In short: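 Thallium flux read by FluxOR fluorescence ([…]) for ~10 min after adding 3 mM Tl+/0.3 mM K+ final. Stable HEK-hKir1.1 cells were dye-loaded 90 min, exposed to compound 30 min at room temperature in ouabain/probenecid buffer; IC50 relative to a 3 μM control inhibitor.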

IC50 [nM] | Compound
20 | COc1cc(-n2cnnn2)ncc1[C@H](O)CN1CCC2(CC1)CCN(C1=C(C)C(=O)OC1)C2=O [Example 94, 8-{(2S)-2-hydroxy-2-[4-methoxy-6-(1H-tetrazol-1-yl)pyridin-3-yl]ethyl}-2-(4-methyl-5-oxo-2,5-dihydrofuran-3-yl)-1-oxo-2-aza-8-azoniaspiro[4.5]decane]
40 | CC1=C(N2CCC3(CCN(C[C@H](O)c4ncc(-n5cnnn5)nc4C)CC3)C2=O)COC1=O [Example 98, 8-{(2S)-2-hydroxy-2-[3-methyl-5-(1H-tetrazol-1-yl)pyrazin-2-yl]ethyl}-2-(4-methyl-5-oxo-2,5-dihydrofuran-3-yl)-1-oxo-2-aza-8-azoniaspiro[4.5]decane]
30 | CC1=C(N2CCC3(CCN(C[C@H](F)c4ccc(-n5cnnn5)nn4)CC3)C2=O)COC1=O [Example 278, 8-{(2S)-2-fluoro-2-[6-(1H-tetrazol-1-yl)pyridazin-3-yl]ethyl}-2-(4-methyl-5-oxo-2,5-dihydrofuran-3-yl)-1-oxo-2-aza-8-azoniaspiro[4.5]decane]
80 | Cc1cc([C@@H](O)CN2CCC3(CC2)CCN(C2=CC(=O)OC2)C3=O)ncc1-n1cnnn1 [Example 7, 8-{(2S)-2-hydroxy-2-[4-methyl-5-(1H-tetrazol-1-yl)pyridin-2-yl]ethyl}-1-oxo-2-(5-oxo-2,5-dihydrofuran-3-yl)-2-aza-8-azoniaspiro[4.5]decane]
330 | CC1OC(=O)C=C1N1CCC2(CCN(C[C@H](O)c3ccc(-n4cnnn4)nc3)CC2)C1=O (mixture of isomers) [Example 226, 8-((R)-2-(6-(1H-tetrazol-1-yl)pyridin-3-yl)-2-hydroxyethyl)-2-(2-methyl-5-oxo-2,5-dihydrofuran-3-yl)-2,8-diazaspiro[4.5]decan-1-one]
50 | Cc1nc(-n2cnnn2)ccc1[C@H](O)CN1CCC2(CC1)CCN(C1=CC(=O)OC1)C2=O [Example 4, 8-{(2S)-2-hydroxy-2-[2-methyl-6-(1H-tetrazol-1-yl)pyridin-3-yl]ethyl}-1-oxo-2-(5-oxo-2,5-dihydrofuran-3-yl)-2-aza-8-azoniaspiro[4.5]decane]
20 | CC1=C(N2CCC3(CCN(C[C@@H](O)c4nnc(-n5cnnn5)cc4C)CC3F)C2=O)COC1=O (single isomer, unassigned) [Example 199]
50 | CC1=C(N2CCC3(CCN(C[C@@H](O)c4ncc(-n5cnnn5)nc4C)CC3)C2=O)COC1=O [Example 99, 8-{(2R)-2-hydroxy-2-[3-methyl-5-(1H-tetrazol-1-yl)pyrazin-2-yl]ethyl}-2-(4-methyl-5-oxo-2,5-dihydrofuran-3-yl)-1-oxo-2-aza-8-azoniaspiro[4.5]decane]
50 | CC1(C)CC2(CCN(C[C@H](O)c3ccc(-n4cnnn4)nn3)CC2)C(=O)N1C1=CC(=O)OC1 [Example 189, 8-{(2S)-2-hydroxy-2-[6-(1H-tetrazol-1-yl)pyridazin-3-yl]ethyl}-3,3-dimethyl-1-oxo-2-(5-oxo-2,5-dihydrofuran-3-yl)-2-aza-8-azoniaspiro[4.5]decane]
200 | CC1=C(N2CCC3(CCN(C[C@H](O)c4ncc(-n5cnnn5)cn4)CC3)C2=O)COC1=O [Example 40, 8-{(2S)-2-hydroxy-2-[5-(1H-tetrazol-1-yl)pyrimidin-2-yl]ethyl}-2-(4-methyl-5-oxo-2,5-dihydrofuran-3-yl)-1-oxo-2-aza-8-azoniaspiro[4.5]decane]
20 | COc1nc(-n2cnnn2)ccc1[C@H](O)CN1CCC2(CC1)CCN(C1=C(C)C(=O)OC1)C2=O [Example 150, 8-{(2S)-2-hydroxy-2-[2-methoxy-6-(1H-tetrazol-1-yl)pyridin-3-yl]ethyl}-2-(4-methyl-5-oxo-2,5-dihydrofuran-3-yl)-2,8-diazaspiro[4.5]decan-1-one]
40 | COC1CN(C[C@H](O)c2ccc(-n3cnnn3)nc2)CCC12CCN(C1=C(C)C(=O)OC1)C2=O (single isomer, unassigned) [Example 170]
140 | CC1=C(N2CCC3(CCN(C[C@H](O)c4ccnc(-n5cnnn5)c4)CC3)C2=O)COC1=O [Example 129, 8-{(2R)-2-hydroxy-2-[2-(1H-tetrazol-1-yl)pyridin-4-yl]ethyl}-2-(4-methyl-5-oxo-2,5-dihydrofuran-3-yl)-1-oxo-2-aza-8-azoniaspiro[4.5]decane]
20 | CC1=C(N2CC(=O)C3(CCN(C[C@H](O)c4ccc(-n5cnnn5)nc4)CC3)C2=O)COC1=O [Example 97, 8-{(2R)-2-hydroxy-2-[6-(1H-tetrazol-1-yl)pyridin-3-yl]ethyl}-2-[4-methyl-5-oxo-2,5-dihydrofuran-3-yl)-1,4-dioxo-2-aza-8-azoniaspiro[4.5]decane]
20 | CC1=C(N2C(=O)C3(CCN(C[C@H](O)c4ccc(-n5cnnn5)nc4C)CC3)CC2C)COC1=O (mixture of isomers) [Example 56, 8-{(2R)-2-hydroxy-2-[2-methyl-6-(1H-tetrazol-1-yl)pyridin-3-yl]ethyl}-3-methyl-2-(4-methyl-5-oxo-2,5-dihydrofuran-3-yl)-1-oxo-2-aza-8-azoniaspiro[4.5]decane]
180 | CC1=C(N2CCC3(CCN(C[C@H](O)c4ccc(-n5cnnn5)nc4C)CC3F)C2=O)COC1=O (single isomer, unassigned) [Example 118]
100 | COC1CN(CCc2nnc(-n3cnnn3)cc2C)CCC12CCN(C1=C(C)C(=O)OC1)C2=O (single isomer, unassigned) [Example 259, 6-methoxy-2-(4-methyl-5-oxo-2,5-dihydrofuran-3-yl)-8-{2-[4-methyl-6-(1H-tetrazol-1-yl)pyridazin-3-yl]ethyl}-2,8-diazaspiro[4.5]decan-1-one]

More lines, now with the values behind:

Compound | IC50 [nM]
CC1=C(N2CCC3(CC4CCC(C3)N4C[C@@H](O)c3nnc(-n4cnnn4)c(C)c3C)C2=O)COC1=O (stereo partly drawn) [Example 51, (1R,5R)-8-{(2R)-2-[4,5-dimethyl-6-(1H-tetrazol-1-yl)pyridazin-3-yl]-2-hydroxyethyl}-1′-(4-methyl-5-oxo-2,5-dihydrofuran-3-yl)-2′-oxospiro[8-azoniabicyclo[3.2.1]octane-3,3′-pyrrolidine]] | 30
CCC1CC2(CCN(C[C@H](O)c3cnc(-n4cnnn4)cn3)CC2)C(=O)N1C1=CC(=O)OC1 (mixture of isomers) [Example 220, 3-ethyl-8-{(2S)-2-hydroxy-2-[5-(1H-tetrazol-1-yl)pyrazin-2-yl]ethyl}-2-(5-oxo-2,5-dihydrofuran-3-yl)-2,8-diazaspiro[4.5]decan-1-one] | 40
CC1=C(N2CCC3(CC4CCC(C3)N4C[C@H](O)c3cnc(-n4cnnn4)nc3)C2=O)COC1=O (stereo partly drawn) [Example 45, (1R,5R)-8-{(2R)-2-hydroxy-2-[2-(1H-tetrazol-1-yl)pyrimidin-5-yl]ethyl}-1′-(4-methyl-5-oxo-2,5-dihydrofuran-3-yl)-2′-oxospiro[8-azoniabicyclo[3.2.1]octane-3,3′-pyrrolidine]] | 30
O=C1C=C(N2C=CC3(CCN(C[C@H](O)c4cnc(-n5cnnn5)cn4)CC3)C2=O)CO1 [Example 152, 8-{(2S)-2-hydroxy-2-[5-(1H-tetrazol-1-yl)pyrazin-2-yl]ethyl}-1-oxo-2-(5-oxo-2,5-dihydrofuran-3-yl)-2-aza-8-azoniaspiro[4.5]dec-3-ene] | 270
Cc1nc(-n2cnnn2)cnc1C(O)CN1CCC2(CC1)C[C@H](C)N(C1=CC(=O)OC1)C2=O (mixture of isomers) [Example 168, (3S)-8-{2-hydroxy-2-[3-methyl-5-(1H-tetrazol-1-yl)pyrazin-2-yl]ethyl}-3-methyl-2-(5-oxo-2,5-dihydrofuran-3-yl)-2,8-diazaspiro[4.5]decan-1-one] | 10
CC1CC2(CC3CCC(C2)N3C[C@H](O)c2cnc(-n3cnnn3)cn2)C(=O)N1C1=CC(=O)OC1 (single isomer, unassigned) [Example 91] | 30
O=C1C=C(N2C(=O)C3(CCN(C[C@H](O)c4cnc(-n5cnnn5)cn4)CC3)CC2C2CC2)CO1 (mixture of isomers) [Example 213, 3-cyclopropyl-8-{(2S)-2-hydroxy-2-[5-(1H-tetrazol-1-yl)pyrazin-2-yl]ethyl}-2-(5-oxo-2,5-dihydrofuran-3-yl)-2,8-diazaspiro[4.5]decan-1-one] | 40
CC1=C(N2C=CC3(CCN([C@H](C)Cc4nnc(-n5cnnn5)cc4C)CC3)C2=O)COC1=O (single isomer, unassigned) [Example 275] | 4
CC1=C(N2CCC3(CC4CCC(C3)N4C[C@H](O)c3cc(C)c(-n4cnnn4)nn3)C2=O)COC1=O (stereo partly drawn) [Example 55, (1R,5R)-8-{(2S)-2-hydroxy-2-[5-methyl-6-(1H-tetrazol-1-yl)pyridazin-3-yl]ethyl}-1′-(4-methyl-5-oxo-2,5-dihydrofuran-3-yl)-2′-oxospiro[8-azoniabicyclo[3.2.1]octane-3,3′-pyrrolidine]] | 50
COC1CN(C2=C(C)C(=O)OC2)C(=O)C12CC1CCC(C2)N1C[C@H](O)c1cnc(-n2cnnn2)cn1 (single isomer, unassigned) [Example 160] | 110
CC1=C(N2C(=O)C3(CC2C)CC2CCC(C3)N2C[C@@H](O)c2ccc(-n3cnnn3)nc2)COC1=O (single isomer, unassigned) [Example 136] | 80
CC1=C(N2CC(O)C3(CC4CCC(C3)N4C[C@H](O)c3ccc(-n4cnnn4)nc3)C2=O)COC1=O (single isomer, unassigned) [Example 104] | 120

— patent US9765074B2, “Inhibitors of the renal outer medullary potassium channel” (Merck Sharp & Dohme Corp., priority 2013, dated 2017)
